One assay relates to Candida albicans A-26. Kind of assay: Agar plate disc diffusion test, MIC per disc. It counts as cell-based. The settings on record: 0.1M sodium borate, pH 7.5, 24 hours, 30° C. How it is done: (§1) Tables 10 and 11 give the results of the testing in vitro of the compounds of Examples 3 and 4 by agar-plate disc-diffusion methods. In Table 10 activity is measured by the size (diameter in mm) of the observed zone of inhibition of the microorganism produced by the test compound. In Table 11, activity is measured by the minimal inhibitory concentration (MIC) of the substance (μg/disc) required to inhibit growth of the test organism. Table 12 gives the results of the testing in vitro of the p-(n-octyloxy)benzoyl derivative of A30912A nucleus [Formula III, R^1 is p-(n-octyloxy)benzoyl] against five strains of Candida albicans by the agar dilution method. In Table 12 activity is measured by the minimal inhibitory concentration (MIC) of the substance (μg/ml) required to inhibit the test organism.
(§2) ^(a) Compounds were suspended in 0.1M sodium borate solution, pH 7.5.
(§3) The compounds were tested at 20 μg/disc at top level and at twofold
(§4) dilutions until end points were reached. Incubation: 24 hours; 30°
For orientation: In agar diffusion tests the substance spreads into inoculated agar from a disc or well.

The subject of assay [1] is Trychophyton mentagrophyes #6. The experiment in a line: Agar plate disc diffusion test, MIC per disc. It counts as cell-based, Trichophyton mentagrophytes. The settings on record: 0.1M sodium borate, pH 7.5, 24 hours, 30° C., * measurable zones with regrowth of organism around disc. How it is done: as §1, §2, §3, §4
*Measurable zones of inhibition with regrowth of organism around disc.

Starred links: 1 amine or outer side, 2 acyl side, 3 side chain; linkers in the order of their positions; H or OH if unused. Positions of bridges follow the written chain, without caps; N, C: chain ends. Non-standard residues stand in square brackets, D forms with d. Residues, ends and D or L forms follow the SMILES beside them. *: point of attachment. Orn(4R-OH,5R-OH) = O=C([C@H](C[C@@H](O)[C@@H](O)N[*:3])N[*:1])[*:2]; hTyr(3S-OH,4S-OH) = N[C@H](C(=O)O)[C@H](O)[C@@H](O)c1ccc(O)cc1; Pro(3S-OH,4S-Me) = C[C@H]1CN[C@H](C(=O)O)[C@H]1O; X2 = CCCCCCCCCCCCCCS(=O)(=O)c1ccc(C(=O)*)cc1; Benzoyl(4-octyl) = CCCCCCCCc1ccc(C(=O)*)cc1; X5 = CCCCCCCCCCCCS(=O)(=O)c1ccc(C(=O)*)cc1; X4 = CCCCCCCCCCS(=O)(=O)c1ccc(C(=O)*)cc1; X22 = CCCCCCCCCCCCOc1ccc(CCC(=O)*)cc1; X10 = CCCCCCCCCCCCOc1cccc(C(=O)*)c1; X21 = CCCCCCCCOc1ccc(CCC(=O)*)cc1; Hyp = O=C(O)[C@@H]1C[C@@H](O)CN1; X19 = CCCCCCOc1ccc(C=CC(=O)*)cc1; X9 = CCCCCCCCCCOc1cccc(C(=O)*)c1; X12 = CCCCCCOc1ccc(CCC(=O)*)cc1; X13 = CCCCCCCCOc1cccc(C(=O)*)c1; X14 = CCCCCCOc1ccc(C(=O)*)cc1; X17 = CCCCOc1ccc(CCC(=O)*)cc1 Bounds are passed on as bounds.

`CCCCCCCCCCS(=O)(=O)c1ccc(C(=O)N[C@H]2C[C@@H](O)[C@@H](O)NC(=O)[C@@H]3[C@@H](O)[C@@H](C)CN3C(=O)[C@H]([C@@H](C)O)NC(=O)[C@H]([C@H](O)[C@@H](O)c3ccc(O)cc3)NC(=O)[C@@H]3C[C@@H](O)CN3C(=O)[C@H]([C@@H](C)O)NC2=O)cc1` [drawing 124] (X4-[Orn(4R-OH,5R-OH)]T[Hyp][hTyr(3S-OH,4S-OH)]T[Pro(3S-OH,4S-Me)]; lactam 1-C): the MIC in the assay on Candida albicans A-26 is 2.5 μg/disc; in assay [1] it was 0.156 μg/disc.

Consider `CCCCCCCCCCCCS(=O)(=O)c1ccc(C(=O)N[C@H]2C[C@@H](O)[C@@H](O)NC(=O)[C@@H]3[C@@H](O)[C@@H](C)CN3C(=O)[C@H]([C@@H](C)O)NC(=O)[C@H]([C@H](O)[C@@H](O)c3ccc(O)cc3)NC(=O)[C@@H]3C[C@@H](O)CN3C(=O)[C@H]([C@@H](C)O)NC2=O)cc1` [drawing 125] (X5-[Orn(4R-OH,5R-OH)]T[Hyp][hTyr(3S-OH,4S-OH)]T[Pro(3S-OH,4S-Me)]; lactam 1-C), for which the figures for the MIC (with Candida albicans A-26; in assay [1]) were 0.625 μg/disc and 0.078 μg/disc, respectively.

`CCCCCCCCCCCCCCS(=O)(=O)c1ccc(C(=O)N[C@H]2C[C@@H](O)[C@@H](O)NC(=O)[C@@H]3[C@@H](O)[C@@H](C)CN3C(=O)[C@H]([C@@H](C)O)NC(=O)[C@H]([C@H](O)[C@@H](O)c3ccc(O)cc3)NC(=O)[C@@H]3C[C@@H](O)CN3C(=O)[C@H]([C@@H](C)O)NC2=O)cc1` [drawing 126] (X2-[Orn(4R-OH,5R-OH)]T[Hyp][hTyr(3S-OH,4S-OH)]T[Pro(3S-OH,4S-Me)]; lactam 1-C): the MIC in the assay on Candida albicans A-26 worked out at 0.625 μg/disc; in assay [1] it was 0.039 μg/disc.

Regarding `CCCCCCCCOc1cccc(C(=O)N[C@H]2C[C@@H](O)[C@@H](O)NC(=O)[C@@H]3[C@@H](O)[C@@H](C)CN3C(=O)[C@H]([C@@H](C)O)NC(=O)[C@H]([C@H](O)[C@@H](O)c3ccc(O)cc3)NC(=O)[C@@H]3C[C@@H](O)CN3C(=O)[C@H]([C@@H](C)O)NC2=O)c1` [drawing 127] (X13-[Orn(4R-OH,5R-OH)]T[Hyp][hTyr(3S-OH,4S-OH)]T[Pro(3S-OH,4S-Me)]; lactam 1-C), the MIC in the assay with Candida albicans A-26 is recorded as 10 μg/disc; in assay [1], over 40 μg/disc.

Regarding `CCCCCCCCCCOc1cccc(C(=O)N[C@H]2C[C@@H](O)[C@@H](O)NC(=O)[C@@H]3[C@@H](O)[C@@H](C)CN3C(=O)[C@H]([C@@H](C)O)NC(=O)[C@H]([C@H](O)[C@@H](O)c3ccc(O)cc3)NC(=O)[C@@H]3C[C@@H](O)CN3C(=O)[C@H]([C@@H](C)O)NC2=O)c1` [drawing 128] (X9-[Orn(4R-OH,5R-OH)]T[Hyp][hTyr(3S-OH,4S-OH)]T[Pro(3S-OH,4S-Me)]; lactam 1-C), the MIC in the assay with Candida albicans A-26 is 2.5 μg/disc; in assay [1], over 40 μg/disc.

As to `CCCCCCCCCCCCOc1cccc(C(=O)N[C@H]2C[C@@H](O)[C@@H](O)NC(=O)[C@@H]3[C@@H](O)[C@@H](C)CN3C(=O)[C@H]([C@@H](C)O)NC(=O)[C@H]([C@H](O)[C@@H](O)c3ccc(O)cc3)NC(=O)[C@@H]3C[C@@H](O)CN3C(=O)[C@H]([C@@H](C)O)NC2=O)c1` [drawing 129] (X10-[Orn(4R-OH,5R-OH)]T[Hyp][hTyr(3S-OH,4S-OH)]T[Pro(3S-OH,4S-Me)]; lactam 1-C), the MIC against Candida albicans A-26 is on record as 2.5 μg/disc; in assay [1] it was over 40 μg/disc.

`CCCCCCOc1ccc(C(=O)N[C@H]2C[C@@H](O)[C@@H](O)NC(=O)[C@@H]3[C@@H](O)[C@@H](C)CN3C(=O)[C@H]([C@@H](C)O)NC(=O)[C@H]([C@H](O)[C@@H](O)c3ccc(O)cc3)NC(=O)[C@@H]3C[C@@H](O)CN3C(=O)[C@H]([C@@H](C)O)NC2=O)cc1` [drawing 131] (X14-[Orn(4R-OH,5R-OH)]T[Hyp][hTyr(3S-OH,4S-OH)]T[Pro(3S-OH,4S-Me)]; lactam 1-C): the MIC with Candida albicans A-26 amounted to 2.5 μg/disc; in assay [1], 0.312 μg/disc.

As for `CCCCCCCCc1ccc(C(=O)N[C@H]2C[C@@H](O)[C@@H](O)NC(=O)[C@@H]3[C@@H](O)[C@@H](C)CN3C(=O)[C@H]([C@@H](C)O)NC(=O)[C@H]([C@H](O)[C@@H](O)c3ccc(O)cc3)NC(=O)[C@@H]3C[C@@H](O)CN3C(=O)[C@H]([C@@H](C)O)NC2=O)cc1` [drawing 133] ({Benzoyl(4-octyl)}-[Orn(4R-OH,5R-OH)]T[Hyp][hTyr(3S-OH,4S-OH)]T[Pro(3S-OH,4S-Me)]; lactam 1-C), the MIC amounted to 0.625 μg/disc in the assay with Candida albicans A-26 and 0.156 μg/disc in assay [1].

On to `CCCCOc1ccc(CCC(=O)N[C@H]2C[C@@H](O)[C@@H](O)NC(=O)[C@@H]3[C@@H](O)[C@@H](C)CN3C(=O)[C@H]([C@@H](C)O)NC(=O)[C@H]([C@H](O)[C@@H](O)c3ccc(O)cc3)NC(=O)[C@@H]3C[C@@H](O)CN3C(=O)[C@H]([C@@H](C)O)NC2=O)cc1` [drawing 134] (X17-[Orn(4R-OH,5R-OH)]T[Hyp][hTyr(3S-OH,4S-OH)]T[Pro(3S-OH,4S-Me)]; lactam 1-C), for which the MIC against Candida albicans A-26 was found to be 20 μg/disc; in assay [1], 1.25 μg/disc.

For the molecule `CCCCCCOc1ccc(CCC(=O)N[C@H]2C[C@@H](O)[C@@H](O)NC(=O)[C@@H]3[C@@H](O)[C@@H](C)CN3C(=O)[C@H]([C@@H](C)O)NC(=O)[C@H]([C@H](O)[C@@H](O)c3ccc(O)cc3)NC(=O)[C@@H]3C[C@@H](O)CN3C(=O)[C@H]([C@@H](C)O)NC2=O)cc1` [drawing 135] (X12-[Orn(4R-OH,5R-OH)]T[Hyp][hTyr(3S-OH,4S-OH)]T[Pro(3S-OH,4S-Me)]; lactam 1-C), the MIC against Candida albicans A-26 worked out at 0.625 μg/disc; in assay [1] it was 0.156 μg/disc.

Turning to `CCCCCCCCOc1ccc(CCC(=O)N[C@H]2C[C@@H](O)[C@@H](O)NC(=O)[C@@H]3[C@@H](O)[C@@H](C)CN3C(=O)[C@H]([C@@H](C)O)NC(=O)[C@H]([C@H](O)[C@@H](O)c3ccc(O)cc3)NC(=O)[C@@H]3C[C@@H](O)CN3C(=O)[C@H]([C@@H](C)O)NC2=O)cc1` [drawing 136] (X21-[Orn(4R-OH,5R-OH)]T[Hyp][hTyr(3S-OH,4S-OH)]T[Pro(3S-OH,4S-Me)]; lactam 1-C), the MIC is on record as 0.078 μg/disc in the assay on Candida albicans A-26 and 0.156 μg/disc in assay [1].

In the case of `CCCCCCCCCCCCOc1ccc(CCC(=O)N[C@H]2C[C@@H](O)[C@@H](O)NC(=O)[C@@H]3[C@@H](O)[C@@H](C)CN3C(=O)[C@H]([C@@H](C)O)NC(=O)[C@H]([C@H](O)[C@@H](O)c3ccc(O)cc3)NC(=O)[C@@H]3C[C@@H](O)CN3C(=O)[C@H]([C@@H](C)O)NC2=O)cc1` [drawing 137] (X22-[Orn(4R-OH,5R-OH)]T[Hyp][hTyr(3S-OH,4S-OH)]T[Pro(3S-OH,4S-Me)]; lactam 1-C), the figures for the MIC (in the assay on Candida albicans A-26; in assay [1]) were 0.312 μg/disc and 0.156 μg/disc, respectively.

As for `CCCCCCOc1ccc(C=CC(=O)N[C@H]2C[C@@H](O)[C@@H](O)NC(=O)[C@@H]3[C@@H](O)[C@@H](C)CN3C(=O)[C@H]([C@@H](C)O)NC(=O)[C@H]([C@H](O)[C@@H](O)c3ccc(O)cc3)NC(=O)[C@@H]3C[C@@H](O)CN3C(=O)[C@H]([C@@H](C)O)NC2=O)cc1` [drawing 139] (X19-[Orn(4R-OH,5R-OH)]T[Hyp][hTyr(3S-OH,4S-OH)]T[Pro(3S-OH,4S-Me)]; lactam 1-C), the MIC in the assay on Candida albicans A-26 amounted to 1.25 μg/disc; in assay [1] it was 0.156 μg/disc.

Values taken from US4293489A, “Derivatives of A-30912A nucleus” (Eli Lilly and Company, priority 1980, dated 1981).
